Measurements taken from patent publication US20020103192A1, “Inhibitors of histone deacetylase” (priority 2000, published 2002).

| SMILES | melting point [°C] |
| --- | --- |
| O=C(CCCCCCSc1ccccc1)c1ncco1 [Example 102, 1-(1,3-oxazol-2-yl)-7-(phenylsulfanyl)-1-heptanone] | 39 to 40 |
| O=C(CCCCCCS(=O)(=O)c1ccccc1)c1ncco1 [Example 103, 1-(1,3-oxazol-2-yl)-7-(phenylsulfonyl)-1-heptanone] | 55 to 56 |
| O=C(CCCCCCSc1ccc2ccccc2c1)c1ncco1 [Example 104, 7-(2-naphthylsulfanyl)-1-(1,3-oxazol-2-yl)-1-heptanone] | 65 to 66 |
| O=C(CCCCCCS(=O)(=O)c1ccc2ccccc2c1)c1ncco1 [Example 105, 7-(2-naphthylsulfonyl)-1-(1,3-oxazol-2-yl)-1-heptanone] | 75 to 76 |
| CNC(=O)C(=O)CCCCCCSc1ccc2ccccc2c1 [Example 106, N-methyl-8-(2-naphthylsulfanyl)-2-oxooctanamide] | 94 to 95 |
| CNC(=O)C(=O)CCCCCCS(=O)(=O)c1ccc2ccccc2c1 [Example 107, N-methyl-8-(2-naphthylsulfonyl)-2-oxooctanamide] | 108 to 109 |
| CNC(=O)C(=O)CCCCCCSc1ccc(-c2ccccc2)cc1 [Example 108, 8-((1,1′-biphenyl)-4-ylsulfanyl)-N-methyl-2-oxooctanamide] | 131 to 132 |
| O=C(NCCCCCCC(=O)c1ncco1)c1cc2ccccc2[nH]1 [Example 110, N-(7-(1 ,3-oxazol-2-yl)-7-oxoheptyl)-1H-indole-2-carboxamide] | 153 to 156 |
| O=C(NCCCCCC(=O)c1ncco1)c1cc2ccccc2[nH]1 [Example 111, N-(6-(1,3-oxazol-2-yl)-6-oxohexyl)-1H-indole-2-carboxamide] | 176 to 179 |
| CC(=O)C(=O)CCCCCCOc1ccc(-c2ccccc2)cc1 [Example 113, 9-((1,1′-biphenyl)-4-yloxy)-2,3-nonanedione] | 110 to 111 |
